“And” between values parts separate entries of the source, which are not always exact repeats. Equal entries are not always repeated.
Legend:
[1] = system: human umbilical vein endothelial cells (HUVEC); experiment: HUVEC proliferation, [3H]-thymidine incorporation; format: cell-based
Procedure: (§1) Library construction. 32,000 FDA drug approvals obtained by Freedom of Information Act requests were condensed to 3,400 unique drug formulations. Drugs were purchased from Sigma, Spectrum Chemicals, MP Biomedicals, The Johns Hopkins Hospital pharmacy, Biomol, and Tocris. 10 mM stock solutions were made using DMSO, water, or ethanol as solvents. Drugs were arrayed in 96-well plates and screened at a final concentration of 10 μM. Cells were incubated with drug for 36 h and proliferation was measured by pulsing with 1 μCi [^3H]-thymidine for 8 h followed by absorption onto glass filters and scintillation counting.
(§2) Statistical analysis. IC50 measurements were carried out in triplicate, and analyzed using four parameter logarithmic analysis. Values are presented +/− the standard error of the mean. P-values were calculated using the Student's T-test. IC50 measurements are carried out using standard assays, and include assays described in Gilbert H J, Lowe C R, Drabble W T. Biochem J. 1979, 183:481-94; and Xiang, B., Taylor, J. C., and Markham, G. D. J. Biol. Chem., 271, 1435 (1996); the contents of which are incorporated herein by reference.
A library of 1,850 FDA-approved drugs and 600 drugs that entered the clinic via approval in a foreign country or phase II clinical trials was created. […]

Jurkat T cells = experiment: Jurkat T-cell proliferation, [3H]-thymidine incorporation; format: cell-based
Procedure: as §1, §2
MPA is an immunosuppressive drug widely used to prevent rejection of transplanted organs (Lipsky, J. J: (1996) Lancet 348, 1357-1359.). The mechanism of action in the immune system is well established—MPA inhibits de novo biosynthesis of purines in T and B lymphocytes (Allison, A. C. & Eugui, E. M. (2000) Immunopharmacology 47, 85-118.). […] Thus, a comparison of HUVEC to Jurkat T cells for sensitivity to MPA in the presence and absence of guanine was carried out. […] Addition of guanine at or above 20 μM rendered Jurkat T cells resistant to MPA. Similar to Jurkat T cells, inhibition of HUVEC proliferation is also reversed by guanine in a dose-dependent manner (FIG. 1B). Unlike Jurkat T cells, however, HUVECs are less sensitive to guanine, the cause of which remains unknown. Similar reversal of MPA inhibition is also seen in HUVEC and Jurkat T-cells with the addition of exogenous guanosine and deoxyguanosine (data not shown).

HUVEC = experiment: Cell cycle analysis of HUVEC; format: cell-based, human
Description: It has been shown that MPA causes cell cycle arrest in activated T and B lymphocytes at G1 (Laliberte, J., Yee, A., Xiong, Y. & Mitchell, B. S. (1998) Blood 91, 2896-2904.). Therefore, the effect of MPA on endothelial cell cycle progression was examined.

[2] = system: VEGF and bFGF stimulated angiogenesis (new blood vessel formation); experiment: Matrigel plug angiogenesis assay in mice; format: in vivo, mouse; conditions: 60 mg/kg/day s.c., 10 days after plug implantation, vs vehicle, p<0.002
Procedure: In vivo angiogenesis. Female C57BL/6NCr 5-week old, 25-30 g mice were purchased from NCI and treated in accordance with Johns Hopkins ACUC procedures. In all animal experiments the MPA prodrug mycophenolate mofetil i.v. formulation (Roche) was used. Mice were pretreated with drug for three days and then implanted with 0.5 mL of Matrigel (BD Biosciences) containing 100 ng/mL VEGF and 150 ng/mL bFGF. Drug treatment was continued daily for 10 days, mice were sacrificed, and plugs were harvested, fixed in neutral buffered formalin, and processed for histology using MAS-trichrome staining. The entire Matrigel plug was photographed at 100× and erythrocyte-filled blood vessels were counted per field.
Matrigel plugs' containing VEGF and bFGF were subcutaneously implanted into mice. The control group was treated with saline vehicle and the MPA group was treated with 60 or 120 mg/kg/day of drug. […] To quantify these differences we counted erythrocyte-filled blood vessels per 100× field (FIG. 3E) (Fahmy, R. G., Dass, C. R., Sun, L. Q., Chesterman, C. N. & Khachigian, L. M. (2003) Nat. Med. 9, 1026-1032), and observed a 69% decrease in new blood vessel formation in mice treated with MPA in comparison with vehicle control (p<0.002). Thus, MPA is capable of inhibiting angiogenesis at a therapeutically achievable dose in vivo.

RENCA cells = experiment: Murine renal cell carcinoma (RENCA) tumor model; format: in vivo, mouse; conditions: mice
Procedure: Renal cell tumor model. Female BALB/C5-6 week old, 25-30 g mice were purchased from NCI. Logarithmically growing RENCA cells (5×10^5) in 50 μL 50% PBS, 50% Matrigel were injected into the renal subcapsule through an incision in the left flank (Drevs, J., Hofmann, I., Hugenschmidt, H., Wittig, C., Madjar, H., Muller, M., Wood, J., Martiny-Baron, G., Unger, C. & Marme, D. (2000) Cancer Res. 60, 4819-4824.). The mice were sacrificed 3.5 weeks after surgery and the primary tumors were dissected and fixed for immunohistochemistry. For CD31 analysis eight fields with the highest level of angiogenesis were selected per tumor for quantification using ImagePro Plus software (Media Cybernetics), and represented as mean percentage area occupied by CD31 positive blood vessels.
Angiogenesis has been implicated in tumor growth among a number of other diseases. Although MPA inhibits fast-growing tumor cell lines in culture and in mouse xenograph experiments (Tressler, R. J., Garvin, L. J. & Slate, D. L. (1994) Int. J. Cancer 57, 568-573, Carter, S. B., Franklin, T. J., Jones, D. F., Leonard, B. J., Mills, S. D., Turner, R. W. & Turner, W. B. (1969) Nature 223, 848-850), it is unclear whether MPA also affects tumor-associated angiogenesis. We determined the efficacy of MPA in inhibiting tumor-associated angiogenesis in a murine renal cell carcinoma (RENCA) model (Salup, R. R. & Wiltrout, R. H. (1986) Cancer Res. 46, 3358-3363). MPA inhibited the growth of the primary tumor in a dose-dependent fashion, causing a 34% and 27% decrease in volume and weight, respectively, at 60 mg/kg/day and a 64% decrease in both volume and weight at 120 mg/kg/day (p<0.001) (FIG. 4A). The decrease in tumor growth caused by MPA at 120 mg/kg/day was accompanied by a 48% decrease in the area of CD31 positive staining blood vessels per 200× field (p<0.001).

[3] = human renal transplant patients, chronic oral treatment; cited from earlier work
[4] = small cohorts of cancer patients (<35), diethanolamine salt; cited from earlier work

Row | SMILES | IC50 ([1]; Homo sapiens, HUVEC, [3H]-thymidine incorporation, +/- standard error of the mean) | MPA inhibition of HUVEC proliferation with exogenous guanine ([1]; guanine 10 μM and 20 μM) | IC50 (Jurkat T cells; Homo sapiens, Jurkat, [3H]-thymidine incorporation, +/- standard error of the mean) | MPA inhibition of Jurkat T-cell proliferation with exogenous guanine (Jurkat T cells; guanine 10 μM) | MPA inhibition of Jurkat T-cell proliferation with exogenous guanine (Jurkat T cells; guanine 20 μM and 50 μM) | cell cycle effect (HUVEC; 1 μM MPA) | population of cells in S phase (HUVEC; 1 μM MPA (control 12%)) | population of cells in G2/M phase (HUVEC; 1 μM MPA (control 17.8%)) | population of cells in G1 phase (HUVEC; 1 μM MPA (control 71%)) | cell cycle effect of MPA after addition of guanosine (HUVEC; 1 μM MPA + 50 μM guanosine) | decrease in new blood vessel formation (erythrocyte-filled blood vessels per 100× field) [2] | decrease in primary tumor volume (RENCA cells; 60 mg/kg/day) | decrease in primary tumor weight (RENCA cells; 60 mg/kg/day) | decrease in primary tumor volume (RENCA cells; 120 mg/kg/day, p<0.001) | decrease in primary tumor weight (RENCA cells; 120 mg/kg/day, p<0.001) | decrease in area of CD31 positive staining blood vessels per 200× field (RENCA cells; 120 mg/kg/day, p<0.001, 120 mg/kg/day) | half life [3] | peak plasma level [3] | toxicity in patients [4]
1 | COc1c(C)c2c(c(O)c1C/C=C(\C)CCC(=O)O)C(=O)OC2 [MPA, mycophenolic acid] | 0.0992 µM | partially reversed | 0.128 µM | unaffected | completely reversed | G1/S cell cycle arrest | 6.5% | 12.4% | 81% | completely reversed | 69% | 34% | 27% | 64% | 64% | 49% and 48% | 18 h | 75 µM | 
2 | COc1c(C)c2c(c(O)c1CC=C(C)CCC(=O)O)C(=O)OC2.OCCNCCO [diethanolamine salt of MPA] |  |  |  |  |  |  |  |  |  |  |  |  |  |  |  |  |  |  | considerable dose-limiting gastrointestinal toxicity

From patent US20100330148A1, “MEHODS AND COMPOSITIONS FOR INHIBITING IMPDH-1 ISOFORM 1” (The Johns Hopkins University, priority 2006, published 2010)
